Reference: ChEMBL document CHEMBL5724914, “Linking interpersonal differences in gut microbiota composition and drug biotransformation activity” (2024)

Assay: (§1) The drug is tested on Z-027 corresponding to metagenome with ENA study accession number: PRJEB37062 and ENA sample accession number: ERS12561826 for biotransformation under anaerobic condition. The drug concentrations were measured over 9 timepoints collected between 0 and 24 hours of incubation by liquid-chromatography-coupled mass spectrometry (LC–MS)
Details: 2 µM
Note: call rule not given here.

Row | Bacterial Biotransformation | SMILES
1 | Compound NOT metabolized | Clc1cccc(Cl)c1N=C1NCCN1 [CLONIDINE]
2 | Compound metabolized | COC(=O)[C@H](c1ccccc1Cl)N1CCc2sccc2C1.O=S(=O)(O)O [CLOPIDOGREL BISULFATE]

Row | SMILES | Bacterial Biotransformation
3 | O=P1(N(CCCl)CCCl)NCCCO1 (stereo not given) [CYCLOPHOSPHAMIDE ANHYDROUS] | Compound NOT metabolized

Assay: (§2) The drug is tested on Z-002 corresponding to rabbit gut metagenome with ENA study accession number: PRJEB37062 and ENA sample accession number: ERS12561802 for biotransformation under anaerobic condition. The drug concentrations were measured over 9 timepoints collected between 0 and 24 hours of incubation by liquid-chromatography-coupled mass spectrometry (LC–MS)
Details: 2 µM

Row | Bacterial Biotransformation | SMILES
4 | Compound metabolized | Clc1cccc(Cl)c1N=C1NCCN1 [CLONIDINE]
5 | Compound metabolized | COC(=O)[C@H](c1ccccc1Cl)N1CCc2sccc2C1.O=S(=O)(O)O [CLOPIDOGREL BISULFATE]

Row | SMILES | Bacterial Biotransformation
6 | O=P1(N(CCCl)CCCl)NCCCO1 (stereo not given) [CYCLOPHOSPHAMIDE ANHYDROUS] | Compound NOT metabolized

Assay: as §2, with “Z-029” for “Z-002”, “rat” for “rabbit”, “ERS12561828” for “ERS12561802”
Details: 2 µM

Row | Bacterial Biotransformation | SMILES
7 | Compound NOT metabolized | Clc1cccc(Cl)c1N=C1NCCN1 [CLONIDINE]
8 | Compound NOT metabolized | COC(=O)[C@H](c1ccccc1Cl)N1CCc2sccc2C1.O=S(=O)(O)O [CLOPIDOGREL BISULFATE]

Row | SMILES | Bacterial Biotransformation
9 | O=P1(N(CCCl)CCCl)NCCCO1 (stereo not given) [CYCLOPHOSPHAMIDE ANHYDROUS] | Compound NOT metabolized

Assay: as §1, with “Z-012” for “Z-027”, “ERS12561812” for “ERS12561826”
Details: 2 µM

Row | Bacterial Biotransformation | SMILES
10 | Compound metabolized | Clc1cccc(Cl)c1N=C1NCCN1 [CLONIDINE]
11 | Compound metabolized | COC(=O)[C@H](c1ccccc1Cl)N1CCc2sccc2C1.O=S(=O)(O)O [CLOPIDOGREL BISULFATE]

Row | SMILES | Bacterial Biotransformation
12 | O=P1(N(CCCl)CCCl)NCCCO1 (stereo not given) [CYCLOPHOSPHAMIDE ANHYDROUS] | Compound NOT metabolized

Details: human gut metagenome, 24 h, 2 µM

Row | Bacterial Biotransformation | SMILES
13 | Compound NOT metabolized | Clc1cccc(Cl)c1N=C1NCCN1 [CLONIDINE]
14 | Compound metabolized | COC(=O)[C@H](c1ccccc1Cl)N1CCc2sccc2C1.O=S(=O)(O)O [CLOPIDOGREL BISULFATE]

Row | SMILES | Bacterial Biotransformation
15 | O=P1(N(CCCl)CCCl)NCCCO1 (stereo not given) [CYCLOPHOSPHAMIDE ANHYDROUS] | Compound NOT metabolized

Details: human gut metagenome, 24 h, 2 µM
Remark: another data set of the same source

Row | Bacterial Biotransformation | SMILES
16 | Compound NOT metabolized | Clc1cccc(Cl)c1N=C1NCCN1 [CLONIDINE]
17 | Compound metabolized | COC(=O)[C@H](c1ccccc1Cl)N1CCc2sccc2C1.O=S(=O)(O)O [CLOPIDOGREL BISULFATE]

Row | SMILES | Bacterial Biotransformation
18 | O=P1(N(CCCl)CCCl)NCCCO1 (stereo not given) [CYCLOPHOSPHAMIDE ANHYDROUS] | Compound NOT metabolized

Details: human gut metagenome, 24 h, 2 µM
Remark: another data set of the same source

Row | Bacterial Biotransformation | SMILES
19 | Compound NOT metabolized | Clc1cccc(Cl)c1N=C1NCCN1 [CLONIDINE]
20 | Compound metabolized | COC(=O)[C@H](c1ccccc1Cl)N1CCc2sccc2C1.O=S(=O)(O)O [CLOPIDOGREL BISULFATE]

Row | SMILES | Bacterial Biotransformation
21 | O=P1(N(CCCl)CCCl)NCCCO1 (stereo not given) [CYCLOPHOSPHAMIDE ANHYDROUS] | Compound metabolized

Details: human gut metagenome, 24 h, 2 µM
Remark: another data set of the same source

Row | Bacterial Biotransformation | SMILES
22 | Compound NOT metabolized | Clc1cccc(Cl)c1N=C1NCCN1 [CLONIDINE]
23 | Compound metabolized | COC(=O)[C@H](c1ccccc1Cl)N1CCc2sccc2C1.O=S(=O)(O)O [CLOPIDOGREL BISULFATE]

Row | SMILES | Bacterial Biotransformation
24 | O=P1(N(CCCl)CCCl)NCCCO1 (stereo not given) [CYCLOPHOSPHAMIDE ANHYDROUS] | Compound NOT metabolized

Details: human gut metagenome, 24 h, 2 µM
Remark: another data set of the same source

Row | Bacterial Biotransformation | SMILES
25 | Compound NOT metabolized | Clc1cccc(Cl)c1N=C1NCCN1 [CLONIDINE]
26 | Compound metabolized | COC(=O)[C@H](c1ccccc1Cl)N1CCc2sccc2C1.O=S(=O)(O)O [CLOPIDOGREL BISULFATE]

Row | SMILES | Bacterial Biotransformation
27 | O=P1(N(CCCl)CCCl)NCCCO1 (stereo not given) [CYCLOPHOSPHAMIDE ANHYDROUS] | Compound NOT metabolized

Details: human gut metagenome, 24 h, 2 µM
Remark: another data set of the same source

Row | Bacterial Biotransformation | SMILES
28 | Compound NOT metabolized | Clc1cccc(Cl)c1N=C1NCCN1 [CLONIDINE]
29 | Compound metabolized | COC(=O)[C@H](c1ccccc1Cl)N1CCc2sccc2C1.O=S(=O)(O)O [CLOPIDOGREL BISULFATE]

Row | SMILES | Bacterial Biotransformation
30 | O=P1(N(CCCl)CCCl)NCCCO1 (stereo not given) [CYCLOPHOSPHAMIDE ANHYDROUS] | Compound NOT metabolized

Assay: as §2, with “WLS-240” for “Z-002”, “human” for “rabbit”, “ERS12561773” for “ERS12561802”
Details: 2 µM

Row | Bacterial Biotransformation | SMILES
31 | Compound metabolized | Clc1cccc(Cl)c1N=C1NCCN1 [CLONIDINE]
32 | Compound metabolized | COC(=O)[C@H](c1ccccc1Cl)N1CCc2sccc2C1.O=S(=O)(O)O [CLOPIDOGREL BISULFATE]

Row | SMILES | Bacterial Biotransformation
33 | O=P1(N(CCCl)CCCl)NCCCO1 (stereo not given) [CYCLOPHOSPHAMIDE ANHYDROUS] | Compound metabolized

Assay: as §2, with “WLS-098” for “Z-002”, “human” for “rabbit”, “ERS12561754” for “ERS12561802”
Details: 2 µM

Row | Bacterial Biotransformation | SMILES
34 | Compound metabolized | Clc1cccc(Cl)c1N=C1NCCN1 [CLONIDINE]
35 | Compound metabolized | COC(=O)[C@H](c1ccccc1Cl)N1CCc2sccc2C1.O=S(=O)(O)O [CLOPIDOGREL BISULFATE]

Row | SMILES | Bacterial Biotransformation
36 | O=P1(N(CCCl)CCCl)NCCCO1 (stereo not given) [CYCLOPHOSPHAMIDE ANHYDROUS] | Compound metabolized

Details: human gut metagenome, 24 h, 2 µM
Remark: another data set of the same source

Row | Bacterial Biotransformation | SMILES
37 | Compound metabolized | Clc1cccc(Cl)c1N=C1NCCN1 [CLONIDINE]
38 | Compound metabolized | COC(=O)[C@H](c1ccccc1Cl)N1CCc2sccc2C1.O=S(=O)(O)O [CLOPIDOGREL BISULFATE]

Row | SMILES | Bacterial Biotransformation
39 | O=P1(N(CCCl)CCCl)NCCCO1 (stereo not given) [CYCLOPHOSPHAMIDE ANHYDROUS] | Compound metabolized

Details: human gut metagenome, 24 h, 2 µM
Remark: another data set of the same source

Row | Bacterial Biotransformation | SMILES
40 | Compound metabolized | Clc1cccc(Cl)c1N=C1NCCN1 [CLONIDINE]
41 | Compound metabolized | COC(=O)[C@H](c1ccccc1Cl)N1CCc2sccc2C1.O=S(=O)(O)O [CLOPIDOGREL BISULFATE]

Row | SMILES | Bacterial Biotransformation
42 | O=P1(N(CCCl)CCCl)NCCCO1 (stereo not given) [CYCLOPHOSPHAMIDE ANHYDROUS] | Compound metabolized

Assay: as §2, with “Z-011” for “Z-002”, “mouse” for “rabbit”, “ERS12561811” for “ERS12561802”
Details: 2 µM

Row | Bacterial Biotransformation | SMILES
43 | Compound metabolized | Clc1cccc(Cl)c1N=C1NCCN1 [CLONIDINE]
44 | Compound metabolized | COC(=O)[C@H](c1ccccc1Cl)N1CCc2sccc2C1.O=S(=O)(O)O [CLOPIDOGREL BISULFATE]

Row | SMILES | Bacterial Biotransformation
45 | O=P1(N(CCCl)CCCl)NCCCO1 (stereo not given) [CYCLOPHOSPHAMIDE ANHYDROUS] | Compound NOT metabolized

Assay: as §2, with “Z-024” for “Z-002”, “pig” for “rabbit”, “ERS12561823” for “ERS12561802”
Details: 2 µM

Row | Bacterial Biotransformation | SMILES
46 | Compound NOT metabolized | Clc1cccc(Cl)c1N=C1NCCN1 [CLONIDINE]
47 | Compound metabolized | COC(=O)[C@H](c1ccccc1Cl)N1CCc2sccc2C1.O=S(=O)(O)O [CLOPIDOGREL BISULFATE]

Row | SMILES | Bacterial Biotransformation
48 | O=P1(N(CCCl)CCCl)NCCCO1 (stereo not given) [CYCLOPHOSPHAMIDE ANHYDROUS] | Compound NOT metabolized

Assay: as §2, with “WLS-069” for “Z-002”, “human” for “rabbit”, “ERS12561748” for “ERS12561802”
Details: 2 µM

Row | Bacterial Biotransformation | SMILES
49 | Compound metabolized | Clc1cccc(Cl)c1N=C1NCCN1 [CLONIDINE]
50 | Compound metabolized | COC(=O)[C@H](c1ccccc1Cl)N1CCc2sccc2C1.O=S(=O)(O)O [CLOPIDOGREL BISULFATE]

Row | SMILES | Bacterial Biotransformation
51 | O=P1(N(CCCl)CCCl)NCCCO1 (stereo not given) [CYCLOPHOSPHAMIDE ANHYDROUS] | Compound metabolized

Assay: as §2, with “Z-016” for “Z-002”, “mouse” for “rabbit”, “ERS12561815” for “ERS12561802”
Details: 2 µM

Row | Bacterial Biotransformation | SMILES
52 | Compound NOT metabolized | Clc1cccc(Cl)c1N=C1NCCN1 [CLONIDINE]
53 | Compound metabolized | COC(=O)[C@H](c1ccccc1Cl)N1CCc2sccc2C1.O=S(=O)(O)O [CLOPIDOGREL BISULFATE]

Row | SMILES | Bacterial Biotransformation
54 | O=P1(N(CCCl)CCCl)NCCCO1 (stereo not given) [CYCLOPHOSPHAMIDE ANHYDROUS] | Compound NOT metabolized

Details: human gut metagenome, 24 h, 2 µM
Remark: another data set of the same source

Row | Bacterial Biotransformation | SMILES
55 | Compound metabolized | Clc1cccc(Cl)c1N=C1NCCN1 [CLONIDINE]
56 | Compound metabolized | COC(=O)[C@H](c1ccccc1Cl)N1CCc2sccc2C1.O=S(=O)(O)O [CLOPIDOGREL BISULFATE]

Row | SMILES | Bacterial Biotransformation
57 | O=P1(N(CCCl)CCCl)NCCCO1 (stereo not given) [CYCLOPHOSPHAMIDE ANHYDROUS] | Compound metabolized

Assay: as §2, with “WLS-038” for “Z-002”, “human” for “rabbit”, “ERS12561745” for “ERS12561802”
Details: 2 µM

Row | Bacterial Biotransformation | SMILES
58 | Compound NOT metabolized | Clc1cccc(Cl)c1N=C1NCCN1 [CLONIDINE]
59 | Compound metabolized | COC(=O)[C@H](c1ccccc1Cl)N1CCc2sccc2C1.O=S(=O)(O)O [CLOPIDOGREL BISULFATE]

Row | SMILES | Bacterial Biotransformation
60 | O=P1(N(CCCl)CCCl)NCCCO1 (stereo not given) [CYCLOPHOSPHAMIDE ANHYDROUS] | Compound NOT metabolized
